In US11472798B2 (Mission Therapeutics Limited, priority 2014, dated 2022):

Target: T1, UCHL1 (Homo sapiens, UniProt P09936)
T1 construct: made in house; host or cells: HEK293T
T1 sequence (P09936 1-223): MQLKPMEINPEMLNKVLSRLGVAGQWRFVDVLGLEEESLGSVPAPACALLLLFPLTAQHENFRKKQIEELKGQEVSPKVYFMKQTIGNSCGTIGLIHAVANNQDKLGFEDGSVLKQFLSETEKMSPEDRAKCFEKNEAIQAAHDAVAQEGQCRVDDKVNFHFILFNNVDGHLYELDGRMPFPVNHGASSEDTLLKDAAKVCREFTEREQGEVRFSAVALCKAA
Assay: UCHL1 biochemical IC50 assay (fluorescence polarisation)
Conditions: 30 min enzyme/compound pre-incubation at room temp, read after 2 hr incubation, read-out: Activity range (UCHL1 biochemical IC50 assay)
Excerpt: Biological Activity of Compounds of the Invention Abbreviations: TAMRA carboxytetramethylrhodamine PCR polymerase chain reaction PBS phosphate buffered saline EDTA ethylenediaminetetraacetic acid Tris 2-amino-2-(hydroxymethyl)-1,3-propanediol NP-40 Nonidet P-40, octylphenoxypolyethoxyethanol BSA bovine serum albumin In Vitro UCHL1 Inhibition Assay Expression and Purification of UCHL1
The UCHL1 construct was PCR amplified and cloned into a pFLAG-CMV-6a vector (Sigma-Aldrich) with an N-terminal FLAG tag. HEK293T cells were transfected with FLAG-UCHL1 using TransIT-LT1 transfection reagent (Mirus) according to the manufacturer's instructions. Cells were harvested 40 hours after transfection. Cells were washed once with PBS and scraped in lysis buffer (50 mM Tris, pH 7.5, 150 mM NaCl, 3 mM EDTA, 0.5% NP40, 10% glycerol, 5 mM beta-mercaptoethanol, protease inhibitors (complete mini, Roche) and phosphatase inhibitors (PhosSTOP mini, Roche). Lysates were incubated for 30 min on ice and centrifuged at 1200 rpm for 10 min at 4° C. Soluble supernatant was added to FLAG affinity resin (EZview Rad ANTI-FLAG M2 affinity gel, Sigma-Aldrich) equilibrated in low salt buffer (20 mM Tris, pH 7.5, 150 mM NaCl, 0.5 mM EDTA, 5 mM beta-mercaptoethanol) and incubated at 4° C. for 3 hours rotating. The resin was spun at 2000 rpm for 2 min and the supernatant was removed. The resin was washed two times with low salt buffer and one time with high salt buffer (20 mM Tris, pH 7.5, 500 mM NaCl, 0.5 mM EDTA, 5 mM beta-mercaptoethanol, protease inhibitors (complete mini, Roche) and phosphatase inhibitors (PhosSTOP mini, Roche). To elute the bound UCHL1, elution buffer (10 mM Tris, pH 7.5, 150 mM NaCl, 0.5 mM FDTA, 10% glycerol, 0.5% NP40, 5 mM beta-mercaptoethanol, 0.15 mg/ml 3×FLAG peptide (Sigma-Aldrich)) was added to the resin and incubated at 4° C. for 2.5 hours rotating. The resin was centrifuged at 4000 rpm for 30 seconds, and the supernatant containing purified FLAG-UCHL1 was removed and stored at −80° C.
UCHL1 Biochemical IC50 Assay
Dilution plates were prepared at 21 times the final concentration (2100 μM for a final concentration of 100 µM) in 50% DMSO in a 96-well polypropylene V-bottom plate (Greiner #651201). A typical 8-point dilution series to be 100, 30, 10, 3, 1, 0.3, 0.1, 0.03 μM final. Reactions were performed in duplicate in black 384 well plates (small volume, Greiner 784076) in a final reaction volume of 21 μl. Either 1 μl of 50% DMSO or diluted compound was added to the plate. UCHL1 was diluted in reaction buffer (20 mM Tris, pH 7.5, 100 mM NaCl, 0.05% Tween 20, 0.5 mg/ml BSA, 5 mM—beta mercaptoethanol) to the equivalent of 0.05 μl/well and 10 μl of diluted UCHL1 was added to the compound. Enzyme and compound were incubated for 30 min at room temp. Reactions were initiated by the addition of 50 nM of TAMRA labelled peptide linked to ubiquitin via an iso-peptide bond as fluorescence polarisation substrate. Reactions were read immediately after addition of substrate and following a 2 hr incubation at room temperature. Readings were performed on a Pherastar Plus (BMG Labtech). λ Excitation 540 nm; k Emission 590 nm.

Row | SMILES | IC50
1 | N#CN1CC[C@H](C(=O)Nc2ncc(-c3ccc(F)cc3)s2)C1 [Example 66, (S)-1-cyano-N-(5-(4-fluorophenyl)thiazol-2-yl)pyrrolidine-3-carboxamide] | < 1000 nM
2 | N#CN1CC[C@H](C(=O)Nc2ncc(-c3ccc(F)c(F)c3)s2)C1 [Example 67, (S)-1-cyano-N-(5-(3,4-difluorophenyl)thiazol-2-yl)pyrrolidine-3-carboxamide] | < 1000 nM
3 | N#CN1CC[C@H](C(=O)Nc2ncc(-c3ccc(C(F)(F)F)cc3)s2)C1 [Example 68, (S)-1-cyano-N-(5-(4-(trifluoromethyl)phenyl)thiazol-2-yl)pyrrolidine-3-carboxamide] | < 1000 nM
4 | N#CN1CC[C@H](C(=O)Nc2ncc(-c3ccncc3)s2)C1 [Example 69, (S)-1-cyano-N-(5-(pyridin-4-yl)thiazol-2-yl)pyrrolidine-3-carboxamide] | < 1000 nM
5 | N#CN1CC[C@H](C(=O)Nc2ncc(-c3ccccn3)s2)C1 [Example 70, (S)-1-cyano-N-(5-(pyridin-2-yl)thiazol-2-yl)pyrrolidine-3-carboxamide] | 1000 to 10000 nM
6 | N#CN1CC[C@@H](C(=O)Nc2ccc(-c3ccccc3)cn2)C1 [Example 71, (R)-1-cyano-N-(5-phenylpyridin-2-yl)pyrrolidine-3-carboxamide] | 10000 to 30000 nM
7 | C[C@H]1[C@@H](C(=O)Nc2ncc(-c3ccccc3)s2)CCN1C#N [Example 72, (2S,3S)-1-cyano-2-methyl-N-(5-phenylthiazol-2-yl)pyrrolidine-3-carboxamide] | < 1000 nM
8 | C[C@H]1[C@@H](C(=O)Nc2ncc(-c3ccc(F)cc3)s2)CCN1C#N [Example 73, (2S,3S)-1-cyano-N-(5-(4-fluorophenyl)thiazol-2-yl)-2-methylpyrrolidine-3-carboxamide] | < 1000 nM
9 | C[C@H]1[C@@H](C(=O)Nc2cn(-c3ccccc3)cn2)CCN1C#N [Example 74, (2S,3S)-1-cyano-2-methyl-N-(1-phenyl-1H-imidazol-4-yl)pyrrolidine-3-carboxamide] | < 1000 nM
10 | C[C@H]1[C@@H](C(=O)Nc2cc(-c3ccccc3)[nH]n2)CCN1C#N [Example 75, (2S,3S)-1-cyano-2-methyl-N-(5-phenyl-1H-pyrazol-3-yl)pyrrolidine-3-carboxamide] | < 1000 nM
11 | C[C@H]1[C@@H](C(=O)Nc2ncc(C3CCOCC3)s2)CCN1C#N [Example 76, (2S,3S)-1-cyano-2-methyl-N-(5-(tetrahydro-2H-pyran-4-yl)thiazol-2-yl)pyrrolidine-3-carboxamide] | < 1000 nM
12 | C[C@H]1[C@@H](C(=O)Nc2ncc(-c3ccccc3Cl)s2)CCN1C#N [Example 77, (2S,3S)—N-(5-(2-chlorophenyl)thiazol-2-yl)-1-cyano-2-methylpyrrolidine-3-carboxamide] | 1000 to 10000 nM
13 | CC1(C(=O)Nc2ncc(-c3ccccc3)s2)CCN(C#N)C1 (stereo not drawn) [Example 78, 1-cyano-3-methyl-N-(5-phenylthiazol-2-yl)pyrrolidine-3-carboxamide] | 1000 to 10000 nM
14 | CC1(C(=O)Nc2cn(-c3ccccc3)cn2)CCN(C#N)C1 (stereo not drawn) [Example 79, 1-cyano-3-methyl-N-(1-phenyl-1H-imidazol-4-yl)pyrrolidine-3-carboxamide] | 10000 to 30000 nM
15 | COCC1(C(=O)Nc2ncc(-c3ccccc3)s2)CCN(C#N)C1 (stereo not drawn) [Example 80, I-cyano-3-(methoxymethyl)-N-(5-phenylthiazol-2-yl)pyrrolidine-3-carboxamide] | 10000 to 30000 nM
16 | N#CN1CCC(C#N)(C(=O)Nc2ncc(-c3ccccc3)s2)C1 (stereo not drawn) [Example 81, 1,3-dicyano-N-(5-phenylthiazol-2-yl)pyrrolidine-3-carboxamide] | 1000 to 10000 nM
17 | C[C@@H]1CN(C#N)C[C@H]1C(=O)Nc1ncc(-c2ccccc2)s1 [Example 82, (3S,4S)-1-cyano-4-methyl-N-(5-phenylthiazol-2-yl)pyrrolidine-3-carboxamide] | < 1000 nM

Row | SMILES | IC50
18 | Cc1cnc(NC(=O)[C@@H]2CN(C#N)C[C@H]2C)s1 [Example 83, (3S,4S)-1-cyano-4-methyl-N-(5-methylthiazol-2-yl)pyrrolidine-3-carboxamide] | 1000 to 10000 nM
19 | C[C@@H]1CN(C#N)C[C@H]1C(=O)Nc1cn(-c2ccccc2)cn1 [Example 85, (f)-1-cyano-4-methyl-N-(1-phenyl-1H-imidazol-4-yl)pyrrolidine-3-carboxamide] | 1000 to 10000 nM
20 | CC[C@@H]1CN(C#N)C[C@H]1C(=O)Nc1cn(-c2ccccc2)cn1 [Example 87, (6)-1-cyano-4-ethyl-N-(1-phenyl-1H-imidazol-4-yl)pyrrolidine-3-carboxamide] | 1000 to 10000 nM
21 | N#CN1CC[C@H](C(=O)Nc2ncc(N3CCOCC3)s2)C1 [Example 91, (S)-1-cyano-N-(5-morpholinothiazol-2-yl)pyrrolidine-3-carboxamide] | < 1000 nM
22 | CN1CCN(c2cnc(NC(=O)C3CCN(C#N)C3)s2)CC1 (stereo not drawn) [Example 92, 1-cyano-N-(5-(4-methylpiperazin-1-yl)thiazol-2-yl)pyrrolidine-3-carboxamide] | < 1000 nM
23 | CC(=O)NCC1CCCCN1c1cnc(NC(=O)C2CCN(C#N)C2)s1 (stereo not drawn) [Example 93, N-(5-(2-(acetamidomethyl)piperidin-1-yl)thiazol-2-yl)-1-cyanopyrrolidine-3-carboxamide] | < 1000 nM
24 | CN(c1ccccc1)c1cnc(NC(=O)C2CCN(C#N)C2)s1 (stereo not drawn) [Example 94, 1-cyano-N-(5-(methyl(phenyl)amino)thiazol-2-yl)pyrrolidine-3-carboxamide] | < 1000 nM
25 | N#CN1CCC(C(=O)Nc2ncc(N3CCc4ccccc43)s2)C1 (stereo not drawn) [Example 95, 1-cyano-N-(5-(indolin-1-yl)thiazol-2-yl)pyrrolidine-3-carboxamide] | < 1000 nM
26 | N#CN1CC[C@H](C(=O)Nc2ncc(N3CCCCC3)s2)C1 [Example 96, (S)-1-cyano-N-(5-(piperidin-1-yl)thiazol-2-yl)pyrrolidine-3-carboxamide] | < 1000 nM
27 | N#CN1CC[C@H](C(=O)Nc2ncc(N3Cc4ccccc4C3)s2)C1 [Example 97, (S)-1-cyano-N-(5-(isoindolin-2-yl)thiazol-2-yl)pyrrolidine-3-carboxamide] | < 1000 nM
28 | N#CN1CC[C@H](C(=O)Nc2ncc(N3CCc4ccccc4C3)s2)C1 [Example 98, (S)-1-cyano-N-(5-(3,4-dihydroisoquinolin-2(1H)-yl)thiazol-2-yl)pyrrolidine-3-carboxamide] | 1000 to 10000 nM
29 | COC[C@H]1CCCN1c1cnc(NC(=O)[C@H]2CCN(C#N)C2)s1 [Example 99, (S)-1-cyano-N-(5-((R)-2-(methoxymethyl)pyrrolidin-1-yl)thiazol-2-yl)pyrrolidine-3-carboxamide] | < 1000 nM
30 | COC[C@@H]1CCCN1c1cnc(NC(=O)[C@H]2CCN(C#N)C2)s1 [Example 100, (S)-1-cyano-N-(5-((S)-2-(methoxymethyl)pyrrolidin-1-yl)thiazol-2-yl)pyrrolidine-3-carboxamide] | < 1000 nM
31 | N#CN1CC[C@H](C(=O)Nc2ncc(N3CCNC(=O)CC3)s2)C1 [Example 101, (S)-1-cyano-N-(5-(5-oxo-1,4-diazepan-1-yl)thiazol-2-yl)pyrrolidine-3-carboxamide] | < 1000 nM
32 | N#CN1CC[C@@H](C(=O)Nc2ncc(N3CCOCC3)s2)C1 [Example 102, (R)-1-cyano-N-(5-morpholinothiazol-2-yl)pyrrolidine-3-carboxamide] | 1000 to 10000 nM
33 | N#CN1CC[C@@H](C(=O)Nc2ncc(N3CCCCC3)s2)C1 [Example 103, (R)-1-cyano-N-(5-(piperidin-1-yl)thiazol-2-yl)pyrrolidine-3-carboxamide] | 1000 to 10000 nM
